≈ marks a conversion by molar mass, not a printed value.
Test system: pediatric patients with ADHD
Experiment: Integrated PKPD model fit to SKAMP total score measurements from the Day 7 classroom evaluation
Assay type: in vivo, human
Conditions: base (final) PKPD model estimate, 81 pediatric patients
Excerpt: This example describes the development of a pharmacokinetic-pharmacodynamic model for the therapeutic effect of a particular methylphenidate formulation and its testing on a population of pediatric patients with ADHD. The drug formulation tested in this example is designated MPH XR-ODT and described in U.S. Publication No. 2014/0030348, which is incorporated herein by reference.
The structural PK model for a plasma concentration following administration of the stimulant was described by two parallel inputs into a central compartment and linear elimination from the central compartment.
Body weight appears as a covariate of CL and V which was included in the model in the following way: CLi=tvCL*Weight^0.655 Equation 1 Vi=tvV*Weight^0.670 Equation 2 where CL, and V, are the clearance and volume of distribution parameters for individual “i”, tvCL and tvV are the typical population clearance and volume of distribution parameters, and weight is body weight in kg. Model parameters were determined using nonlinear mixed-effects modeling with first-order conditional maximum likelihood estimation using Phoenix NLME (Version 6.3).
This phenomenon was readily obvious in the patients that were assigned to the placebo treatment arm. Therefore, the PD model required a drug effect component and a placebo effect component. […]

COC(=O)C(c1ccccc1)C1CCCCN1 (centres unmarked) [methylphenidate]
EC50 (Homo sapiens, simulated plasma concentrations, read-out: EC50, concentration of methylphenidate required to achieve 50% of the maximal reduction in SKAMP total score): 0.0142 µg/mL (≈ 0.061 µM)
Emax, maximum reduction in SKAMP total score with administration of methylphenidate: 38.1
